Reference: patent US20040033517A1, “Compositions and methods relating to endothelial cell signaling using the protease activated receptor (PAR1)” (priority 2002, published 2004)
Read-outs that look alike come from different tables or passages of the source.

Assays:
[1] = system: human umbilical vein endothelial cells HUVEC-C; assay type: cell-based; details: endothelial cells
Text: Microarray Analysis. […] Total RNA was isolated followed by reverse transcription. Purified double stranded cDNA was in vitro transcribed in the presence of biotinylated dUTP and dCTP, fragmented cRNA was hybridized to the HG-U95Av2 array (Affymetrix, Santa Clara, Calif.), followed by staining with streptavidin-phycoerythrin. Arrays were scanned and analyzed using GeneChip3.1 software. […] An average fold-induction for the three independent experiments was obtained by calculating the means of the logarithm of the individual fold-increases for each agonist.

[2] = system: thrombin-mediated PAR1 signaling; details: 100 nM hirudin; M. Riewald et al., Blood 97: 3109, 2001; cited from earlier work

## Thrombin
[1]
  Induction (log 2), A1743606 wg51108.x1 Homo sapiens cDNA: −0.05 log 2
  Induction (log 2), AB002450 Homo sapiens mRNA from chromosome 5q21-22, clone-A3-A: 0.45 log 2
  Induction (log 2), AB003184 Homo sapiens mRNA for ISLR: 0.05 log 2
  Induction (log 2), AB012229 fructose-6-phosphate,2-kinase/fructose-2,6-bisphosphatase: 0.25 log 2
  Induction (log 2), AF000421 TTF-1 interacting peptide 12 mRNA: 0.20 log 2
  Induction (log 2), AF015451 Homo sapiens Usurpin-beta mRNA: 0.45 log 2
  Induction (log 2), AF022375 Homo sapiens vascular endothelial growth factor mRNA: 0.75 log 2
  Induction (log 2), AF024710 Homo sapiens vascular endothelial growth factor (VEGF) mRNA: 0.90 log 2
  Induction (log 2), AF042083 BH3 interacting domain death agonist (BID) mRNA: 0.20 log 2
  Induction (log 2), AF094481 trinucleotide repeat DNA binding protein p20-CGGBP (CGGBP) gene: 0.50 log 2
  Induction (log 2), AF095154 Homo sapiens C1q-related factor mRNA: 0.10 log 2
  Induction (log 2), AF098462 Homo sapiens stanniocalcin-related protein mRNA: 1.00 log 2
  Induction (log 2), AJ000480 Homo sapiens mRNA for C8FW phosphoprotein: 1.15 log 2
  Induction (log 2), Cluster Incl U88629 Human RNA polymerase II elongation factor ELL2: 0.70 log 2
  Induction (log 2), Cluster Incl X66360 H.sapiens mRNA PCTAIRE-2 for serine/threonine protein kinase: 0.35 log 2
  Induction (log 2), D29990 Human mRNA for cationic amino acid transporter 2: 0.75 log 2
  Induction (log 2), D38449 Human mRNA for G protein-coupled receptor: 0.10 log 2
  Induction (log 2), D49817 6-phosphofructo-2-kinase/fructose-2, 6-bisphosphatase mRNA: 0.20 log 2
  Induction (log 2), D78579 Homo sapiens mRNA for neuron derived orphan receptor: 1.55 log 2
  Induction (log 2), J04102 Human erythroblastosis virus oncogene homolog 2 (ets-2) mRNA: 0.50 log 2
  Induction (log 2), L07261 Human alpha adducin mRNA: 0.10 log 2
  Induction (log 2), L19871 Human activating transcription factor 3 (ATF3) mRNA: 1.10 log 2
  Induction (log 2), L38487 Human estrogen receptor-related protein (hERRa1) mRNA: 0.10 log 2
  Induction (log 2), M14648 Human cell adhesion protein (vitronectin) receptor alpha subunit mRNA: 0.60 log 2
  Induction (log 2), M19481 Human follistatin gene: 1.30 log 2
  Induction (log 2), M22489 Human bone morphogenetic protein 2A (BMP-2A) mRNA: 0.90 log 2
  Induction (log 2), M28130 Human interleukin 8 (IL8) gene: 0.40 log 2
  Induction (log 2), M29039 Human transactivator (jun-B) gene: 0.60 log 2
  Induction (log 2), M36820 Human cytokine (GRO-beta) mRNA: 0.35 log 2
  Induction (log 2), M59964 Human stem cell factor mRNA: 0.75 log 2
  Induction (log 2), M64349 Human cyclin D (cyclin D1) mRNA: 0.00 log 2
  Induction (log 2), M96995 epidermal growth factor receptor-binding protein GRB2 (EGFRBP-GRB2) mRNA: 0.05 log 2
  Induction (log 2), Neurofibromatosis 2 Tumor Suppressor: 0.55 log 2
  Induction (log 2), Tyrosine Phosphatase, Epsilon: 1.40 log 2
  Induction (log 2), U08015 HumanNF-ATc mRNA: 0.55 log 2
  Induction (log 2), U12471 Human thrombospondin-1 gene: 0.70 log 2
  Induction (log 2), U12767 Human mitogen induced nuclear orphan receptor (MINOR) mRNA: 1.15 log 2
  Induction (log 2), U15932 Human dual-specificity protein phosphatase mRNA: 0.60 log 2
  Induction (log 2), U18671 Human Stat2 gene: 0.05 log 2
  Induction (log 2), U20816 Human nuclear factor kappa-B2 (NF-KB2) gene: 0.70 log 2
  Induction (log 2), U23070 Human putative transmembrane protein (nma) mRNA: 1.10 log 2
  Induction (log 2), U25997 Homo sapiens stanniocalcin precursor (STC) mRNA: 1.10 log 2
  Induction (log 2), U33838 Human NF-kappa-B p65delta3 mRNA: 0.10 log 2
  Induction (log 2), U42391 Human myosin-IXb mRNA: −0.15 log 2
  Induction (log 2), U65093 Human msg1-related gene 1 (mrg1) mRNA: 0.95 log 2
  Induction (log 2), U72066 Homo sapiens CtBP interacting protein CtIP (CtIP) mRNA: 0.70 log 2
  Induction (log 2), U76368 Human cationic amino acid transporter-2A (ATRC2) mRNA: 0.75 log 2
  Induction (log 2), U83981 Homo sapiens apoptosis associated protein (GADD34) mRNA: 0.50 log 2
  Induction (log 2), U88629/FEATURE Human RNA polymerase II elongation factor ELL2: 0.75 log 2
  Induction (log 2), W28170 43a12 Homo sapiens cDNA: 0.15 log 2
  Induction (log 2), W28257 44c1 Homo sapiens cDNA: 0.20 log 2
  Induction (log 2), X02469 Human mRNA for p53 cellular tumor antigen: −0.10 log 2
  Induction (log 2), X14787 Human mRNA for thrombospondin: 0.40 log 2
  Induction (log 2), X14798 Human DNA for c-ets-1 proto-oncogene: 0.75 log 2
  Induction (log 2), X16706 Human fra-2 mRNA: 0.50 log 2
  Induction (log 2), X51345 Human jun-B mRNA for JUN-B protein: 0.75 log 2
  Induction (log 2), X51435 Human PRDII-BF1 gene for a DNA-binding protein: 0.85 log 2
  Induction (log 2), X66360/FEATURE H.sapiens mRNA PCTAIRE-2 for serine/threonine protein kinase: 0.65 log 2
  Induction (log 2), X68277 H.sapiens CL 100 mRNA for protein tyrosine phosphatase: 1.75 log 2
  Induction (log 2), X69086 H.sapiens mRNA for utrophin: 0.60 log 2
  Induction (log 2), X69699 H.sapiens Pax8 mRNA: 0.10 log 2
  Induction (log 2), X98248 H.sapiens mRNA for sortilin: −0.15 log 2
  Induction (log 2), Z12173 H.sapiens GNS mRNA encoding glucosamine-6-sulphatase: 0.60 log 2
  Induction (log 2), Z12830 H.sapiens mRNA for SSR alpha subunit: 0.40 log 2
  Induction (log 2), Z23115 H.sapiens bc1-xL mRNA: 0.10 log 2
  Induction (log 2), Z29083 H.sapiens 5T4 gene for 5T4 Oncofetal antigen: 0.10 log 2
  Induction (log 2), Z48579 H.sapiens mRNA for disintegrin-metalloprotease (partial): 0.20 log 2
[1]; first entry (r8)
  Induction (log 2), D13540 Homo sapiens SH-PTP3 mRNA for protein-tyrosine phosphatase: 0.65 log 2
[1]; first entry (r15)
  Induction (log 2), W28616 49b9 Homo sapiens cDNA: 0.30 log 2
[1]; second entry (r30)
  Induction (log 2), W28616 49b9 Homo sapiens cDNA: −0.05 log 2
[1]; second entry (r54)
  Induction (log 2), D13540 Homo sapiens SH-PTP3 mRNA for protein-tyrosine phosphatase: 0.40 log 2

## hirudin
[2]
  Block of cell surface thrombin-mediated PAR1 signaling: block all cell surface thrombin-mediated PAR1 signaling
